Columns and labels:
Assay in all cases: MIC agar dilution test
Type in all cases: cell-based
[1] = tested on: Aspergillus brasiliensis; settings: Experimental 1; Sabouraud-4% Dextrose-Agar, pH 5.6 (+/−0.2)
Description: (§1) For testing the inhibition of bacteria, Composition 6 from Table 1 above was diluted in butylpolyglycol and added in different concentrations to liquid Caso-Agar at 50° C. and is buffered to pH 7 (+/−0.2). For testing the inhibition of yeast and mold, the Composition 6 was diluted in butylpolyglycol and added in different concentrations to liquid Sabouraud-4% Dextrose-Agar at 50° C. and is buffered to pH 5.6 (+/−0.2). Each of the solutions is poured into a petri-dish and inoculated with the same amount of bacteria, yeast or mold respectively. The minimum inhibitory concentration (MIC) is the lowest concentration of Composition 6 that inhibits the growth of the respective microorganism where the next lowest dilution fails to inhibit the growth of said microorganism.
(§2) A similar experiment was carried out versus Experimental 1. The composition employed in this second experiment is almost identical in composition to Composition 6 from Table 1 above, differing only slightly in the exact levels of the components. Composition 6a is according to the first aspect of the present invention. Here, a comparison is made versus the efficacy of phenoxyethanol, alone and in combination with composition 6a.

[2] = tested on: Aspergillus terreus; settings: Experimental 1; Sabouraud-4% Dextrose-Agar, pH 5.6 (+/−0.2)
Description: as §1, §2

[3] = tested on: Candida albicans; settings: Experimental 1; Sabouraud-4% Dextrose-Agar, pH 5.6 (+/−0.2)
Description: as §1, §2

[4] = tested on: Candida parapsilosis; settings: Experimental 1; Sabouraud-4% Dextrose-Agar, pH 5.6 (+/−0.2)
Description: as §1, §2

[5] = tested on: Citrobacter freundii; settings: Experimental 1; Caso-Agar, pH 7 (+/−0.2)
Description: as §1, §2

[6] = tested on: Enterobacter aerogenes; settings: Experimental 1; Caso-Agar, pH 7 (+/−0.2)
Description: as §1, §2

[7] = tested on: Enterobacter gergovia; settings: Experimental 1; Caso-Agar, pH 7 (+/−0.2)
Description: as §1, §2

[8] = tested on: Escherichia coli; settings: Experimental 1; Caso-Agar, pH 7 (+/−0.2)
Description: as §1, §2

[9] = tested on: Fusarium solani; settings: Experimental 1; Sabouraud-4% Dextrose-Agar, pH 5.6 (+/−0.2)
Description: as §1, §2

[10] = tested on: Klebsiella pneumoniae; settings: Experimental 1; Caso-Agar, pH 7 (+/−0.2)
Description: as §1, §2

[11] = tested on: Penicillium funicolosium; settings: Experimental 1; Sabouraud-4% Dextrose-Agar, pH 5.6 (+/−0.2)
Description: as §1, §2

[12] = tested on: Penicillium minioluteum; settings: Experimental 1; Sabouraud-4% Dextrose-Agar, pH 5.6 (+/−0.2)
Description: as §1, §2

[13] = tested on: Pseudomonas aeruginosa; settings: Experimental 1; Caso-Agar, pH 7 (+/−0.2)
Description: as §1, §2

[14] = tested on: Saccharomyces cerevisiae; settings: Experimental 1; Sabouraud-4% Dextrose-Agar, pH 5.6 (+/−0.2)
Description: as §1, §2

[15] = tested on: Staphylococcus aureus; settings: Experimental 1; Caso-Agar, pH 7 (+/−0.2)
Description: as §1, §2

[16] = tested on: Brevibacterium linens; settings: Experimental 1; Caso-Agar, pH 7 (+/−0.2)
Description: as §1

[17] = tested on: Cornyebacterium jeikeium; settings: Experimental 1; Caso-Agar, pH 7 (+/−0.2)
Description: as §1

[18] = tested on: Cornyebacterium xerosis; settings: Experimental 1; Caso-Agar, pH 7 (+/−0.2)
Description: as §1

[19] = tested on: Malassezia furfur; settings: Experimental 1; Sabouraud-4% Dextrose-Agar, pH 5.6 (+/−0.2)
Description: as §1

[20] = tested on: Malassezia pachydermatis; settings: Experimental 1; Sabouraud-4% Dextrose-Agar, pH 5.6 (+/−0.2)
Description: as §1

[21] = tested on: Malassezia sympiodalis; settings: Experimental 1; Sabouraud-4% Dextrose-Agar, pH 5.6 (+/−0.2)
Description: as §1

[22] = tested on: Staph. Epidermis; settings: Experimental 1; Caso-Agar, pH 7 (+/−0.2)
Description: as §1

[23] = tested on: Streptococcus mutans; settings: Experimental 1; Caso-Agar, pH 7 (+/−0.2)
Description: as §1

Measured: MIC

Sorbitan Caprylate
600 ppm: [14] | [19]
400 ppm: [11] | [12] | [20] | [21]
10000 ppm: [5] | [6] | [7] | [8] | [13] | [22]
4000 ppm: [16] | [17]
2000 ppm: [18] | [23]
800 ppm: all other assays above

Reference: US10874599B2, “Composition for inhibiting micro-organisms” (Clariant International Ltd., priority 2016, dated 2020)
